# Data: patent US8674063B2, “Chimerical peptidic molecules with antiviral properties against the viruses of the Flaviviridae family” (Centro de Ingenieria Genetica y Biotecnologia, priority 2006, dated 2014)
# What was measured:
# Format in all cases: cell-based
# [1] = system: dengue 2 virus (DV2, strain S16803); assay: Plaque reduction neutralization assay (PRNT) in Vero cells, dengue 2 virus; conditions: for antiviral activity (inhibition of infection by DV2, plaque reduction), in words: Vero cells
# Procedure: Vero cells were grown in 24-well plates to approximately 90% confluence, and washed twice with MEM medium without FCS. Peptide dilutions were added according to the particular assay and incubated typically during 1 h at 37° C. After the incubation, the virus was added at a multiplicity of infection of 0.1, followed by a subsequent incubation for 1 hour at 37 C. In certain experiments the peptides were added simultaneously with the virus (without preincubation) or the peptide preincubation time was modified. At the end of the second incubation, the unbound virus was eliminated by washing, and the cells were incubated for 5 days at 37 C in high density medium (MEM supplemented with non essential amino acids, 1% FCS, 1% carboxymethylcellulose) in order to propitiate the appearance of lytic plaques. The plaques were visualized by staining with 0.1% Naphtol Blue Black in 0.15 Mol/L sodium acetate. Two replicates were used per experimental point in each assay, and three independent determinations were performed. The inhibition percentage was calculated according to the expression: […]
# In order to determine the role of the cell penetrating peptide and the ER retention signal on the antiviral activity of peptides of the present invention we tested peptides No 1, 2, 3 and 4 of table 1 for inhibition of the viral infection by VD2 in Vero cells, using the assay described in the example 2.
# [2] = Cytotoxic effect (CTE) of peptides on Vero cell monolayer; conditions: Vero cell monolayer; Vero cells; read-out: CTE: peptide concentration causing damage to 50% of the monolayer
# Vero cells = assay: as above; conditions: at the assayed conditions
Compound,"antiviral activity (inhibition of infection by DV2, plaque reduction), in words [1]",CC50 [2],other results
"TAT peptide: YGRKKRRQRRRPPQ; SEQ ID NO 64; cell penetrating TAT peptide, negative control (Description of the Artificial Sequence chimerical peptide) [reference compound]",did not show antiviral activity,,"number of plaques in presence of peptide ([1]; DV2, Vero cells, FIG. 2B): increase in the number of plaques"
CC[C@H](C)[C@H](NC(=O)[C@H](CO)NC(=O)[C@H](CC(C)C)NC(=O)[C@@H](NC(=O)[C@@H]1CCCN1C(=O)[C@H](CO)NC(=O)[C@H](CO)NC(=O)CNC(=O)CNC(=O)CNC(=O)[C@H](CCC(N)=O)NC(=O)[C@@H]1CCCN1C(=O)[C@@H]1CCCN1C(=O)[C@H](CCCNC(=N)N)NC(=O)[C@H](CCCNC(=N)N)NC(=O)[C@H](CCCNC(=N)N)NC(=O)[C@H](CCC(N)=O)NC(=O)[C@H](CCCNC(=N)N)NC(=O)[C@H](CCCNC(=N)N)NC(=O)[C@H](CCCCN)NC(=O)[C@H](CCCCN)NC(=O)[C@H](CCCNC(=N)N)NC(=O)CNC(=O)[C@@H](N)Cc1ccc(O)cc1)[C@@H](C)CC)C(=O)N[C@H](C(=O)N[C@H](C(=O)N[C@@H](CO)C(=O)N[C@@H](CCC(=O)O)C(=O)N[C@@H](CC(=O)O)C(=O)NCC(=O)NCC(=O)NCC(=O)N[C@@H](CCCCN)C(=O)N[C@@H](CC(=O)O)C(=O)N[C@@H](CCC(=O)O)C(=O)N[C@@H](CC(C)C)C(=O)O)[C@@H](C)CC)[C@@H](C)O [NS2Bden2 + TAT + KDEL],,> 150 µM,
CC[C@H](C)[C@H](NC(=O)[C@H](CO)NC(=O)[C@H](CC(C)C)NC(=O)[C@@H](NC(=O)[C@@H]1CCCN1C(=O)[C@H](CO)NC(=O)[C@H](CO)NC(=O)CNC(=O)CNC(=O)CNC(=O)[C@H](CCC(N)=O)NC(=O)[C@@H]1CCCN1C(=O)[C@@H]1CCCN1C(=O)[C@H](CCCNC(=N)N)NC(=O)[C@H](CCCNC(=N)N)NC(=O)[C@H](CCCNC(=N)N)NC(=O)[C@H](CCC(N)=O)NC(=O)[C@H](CCCNC(=N)N)NC(=O)[C@H](CCCNC(=N)N)NC(=O)[C@H](CCCCN)NC(=O)[C@H](CCCCN)NC(=O)[C@H](CCCNC(=N)N)NC(=O)CNC(=O)[C@@H](N)Cc1ccc(O)cc1)[C@@H](C)CC)C(=O)N[C@H](C(=O)N[C@H](C(=O)N[C@@H](CO)C(=O)N[C@@H](CCC(=O)O)C(=O)N[C@@H](CC(=O)O)C(=O)NCC(N)=O)[C@@H](C)CC)[C@@H](C)O [NS2Bden2+TAT],,150 µM,
"segment [I] of peptide NS2Bden2+TAT (SSPILSITISEDG), lacks the cell penetrating segment",does not inhibit,,"antiviral activity (inhibition of infection by DV2, plaque reduction), in words ([1]; listed as NS3pro protease activation inhibitor segment [I]): does not show antiviral activity in vitro"
CC[C@H](C)[C@H](NC(=O)[C@H](CCCCN)NC(=O)[C@@H](NC(=O)[C@H](CCC(N)=O)NC(=O)[C@@H](N)CCCNC(=N)N)[C@@H](C)CC)C(=O)N[C@@H](Cc1c[nH]c2ccccc12)C(=O)N[C@@H](Cc1ccccc1)C(=O)N[C@@H](CCC(N)=O)C(=O)N[C@@H](CC(N)=O)C(=O)N[C@@H](CCCNC(=N)N)C(=O)N[C@@H](CCCNC(=N)N)C(=O)N[C@@H](CCSC)C(=O)N[C@@H](CCCCN)C(=O)N[C@@H](Cc1c[nH]c2ccccc12)C(=O)N[C@@H](CCCCN)C(=O)N[C@@H](CCCCN)C(=O)NCC(=O)NCC(=O)NCC(=O)N[C@@H](CO)C(=O)N[C@@H](CO)C(=O)N1CCC[C@H]1C(=O)N[C@H](C(=O)N[C@@H](CC(C)C)C(=O)N[C@@H](CO)C(=O)N[C@H](C(=O)N[C@H](C(=O)N[C@H](C(=O)N[C@@H](CO)C(=O)N[C@@H](CCC(=O)O)C(=O)N[C@@H](CC(=O)O)C(=O)NCC(N)=O)[C@@H](C)CC)[C@@H](C)O)[C@@H](C)CC)[C@@H](C)CC [NS2Bden2-pP2],,50 µM,"toxicity on the cells, in words (Vero cells): significant cytotoxicity"
CC[C@H](C)[C@H](NC(=O)[C@H](CO)NC(=O)[C@H](CC(C)C)NC(=O)[C@@H](NC(=O)[C@@H]1CCCN1C(=O)[C@H](CO)NC(=O)[C@H](CO)NC(=O)CNC(=O)CNC(=O)CNC(=O)[C@H](CCCNC(=N)N)NC(=O)[C@H](CCCNC(=N)N)NC(=O)[C@H](CCCNC(=N)N)NC(=O)[C@H](CCCNC(=N)N)NC(=O)[C@H](CCCNC(=N)N)NC(=O)[C@H](CCCNC(=N)N)NC(=O)[C@H](CCCNC(=N)N)NC(=O)[C@H](CCCNC(=N)N)NC(=O)[C@H](CCCNC(=N)N)NC(=O)[C@@H](N)CCCNC(=N)N)[C@@H](C)CC)C(=O)N[C@H](C(=O)N[C@H](C(=O)N[C@@H](CO)C(=O)N[C@@H](CCC(=O)O)C(=O)N[C@@H](CC(=O)O)C(=O)NCC(N)=O)[C@@H](C)CC)[C@@H](C)O [NS2Bden2-pRR],,> 50 µM,
